Consider six compounds from ChEMBL document CHEMBL1123590, “Dopamine agonists related to 3-allyl-6-chloro-2,3,4,5-tetrahydro-1-(4-hydroxyphenyl)-1H-3-benzaz epi ne-7, 8-diol. 6-Position modifications” (J Med Chem, 1987).

Assay [1] has as its target D(1A) dopamine receptor (Rattus norvegicus, UniProt P18901). Put plainly: Dopamine agonist (Dopamine receptor D1) activity was measured as increase in cAMP formation relative to maximum increase in dopamine-sensitive adenylate cyclase. Type of assay: functional. In general terms: cAMP levels reflect the balance of adenylyl cyclase and phosphodiesterase activity.
The species entered for assay [2] is Rattus norvegicus. Put plainly: Maximum response of adenylate cyclase to that of maximum response caused by dopamine was measured. Type of assay: functional. The arrangement: unit not given here.
Assay [3] deals with T1, D(2) dopamine receptor (Homo sapiens, UniProt P14416). The experiment in a line: Dopamine receptor D2 agonist activity was determined for inhibition of release of NE in an isolated perfused rabbit ear artery preparation.
In assay [4] the target is T1, D(2) dopamine receptor. Put plainly: Dopamine receptor D2 agonist activity was determined for inhibition of the constrictor response to electrical stimulation in an isolated perfused rabbit ear artery preparation. As to conditions: target entry is the homologue from another species. Type of assay: functional, Oryctolagus cuniculus.

Bounds are passed on as bounds.

Sequence of D(1A) dopamine receptor (P18901 whole entry): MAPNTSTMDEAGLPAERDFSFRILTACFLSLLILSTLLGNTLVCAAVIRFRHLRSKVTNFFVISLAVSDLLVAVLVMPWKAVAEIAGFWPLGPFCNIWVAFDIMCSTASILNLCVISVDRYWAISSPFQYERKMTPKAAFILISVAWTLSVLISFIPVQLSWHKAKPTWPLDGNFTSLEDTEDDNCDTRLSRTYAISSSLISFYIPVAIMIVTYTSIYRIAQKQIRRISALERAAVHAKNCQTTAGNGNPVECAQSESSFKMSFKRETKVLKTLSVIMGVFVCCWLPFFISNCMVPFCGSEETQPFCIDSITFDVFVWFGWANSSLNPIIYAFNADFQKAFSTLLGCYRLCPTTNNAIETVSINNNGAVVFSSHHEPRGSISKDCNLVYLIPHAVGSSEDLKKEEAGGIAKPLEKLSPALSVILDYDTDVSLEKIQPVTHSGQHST
T1 sequence (P14416 whole entry, the tested form may be a part): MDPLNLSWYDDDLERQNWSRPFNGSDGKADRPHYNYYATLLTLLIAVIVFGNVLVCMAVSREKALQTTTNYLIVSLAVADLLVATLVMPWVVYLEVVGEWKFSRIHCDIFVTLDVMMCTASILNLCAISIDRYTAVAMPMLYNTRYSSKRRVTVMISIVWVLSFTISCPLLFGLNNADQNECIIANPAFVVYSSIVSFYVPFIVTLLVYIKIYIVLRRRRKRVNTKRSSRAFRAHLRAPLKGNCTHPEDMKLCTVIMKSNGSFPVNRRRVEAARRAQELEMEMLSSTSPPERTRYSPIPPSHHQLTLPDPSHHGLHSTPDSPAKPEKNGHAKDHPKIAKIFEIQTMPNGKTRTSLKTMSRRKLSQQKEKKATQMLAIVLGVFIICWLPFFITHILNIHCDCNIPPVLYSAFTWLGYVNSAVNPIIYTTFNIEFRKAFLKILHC

As for `C=CCN1CCc2c(cc(O)c(O)c2Cl)C(c2ccc(O)cc2)C1.CS(=O)(=O)O` (stereo unspecified), the EC50 in assay [1] is 15 nM; in assay [3], 122 nM. The same compound returned a Max response in assay [2] of 80.

As to `C=CCN1CCc2c(cc(O)c(O)c2F)C(c2ccc(O)cc2)C1.CS(=O)(=O)O` (stereo unspecified), the values for the EC50 in assay [4] and in assay [1] were 137 nM and 100 nM, respectively. In assay [2], this compound had a Max response of 89.

Take `Br.C=CCN1CCc2cc(O)c(O)cc2C(c2ccc(O)cc2)C1` (stereo unspecified): the EC50 in assay [4] came out at 253 nM; in assay [1] it was 400 nM. The Max response in assay [2] was 35.

In the case of `C=CCN1CCc2c(cc(O)c(O)c2Br)C(c2ccc(O)cc2)C1.CS(=O)(=O)O` (stereo unspecified), the results for the EC50 in assay [4] and in assay [1] were 174 nM and 50 nM, respectively. Moreover, the Max response in assay [2] is 78.

On to `C=CCN1CCc2c(cc(O)c(O)c2C)C(c2ccc(O)cc2)C1.Cl` (stereo unspecified), for which the EC50 is > 10000 nM in assay [4] and 400 nM in assay [1]. In assay [2], this compound showed a Max response of 69.

For `C=CCN1CCc2cc(O)c(O)cc2C(c2ccccc2)C1.Cl` (stereo unspecified), in assay [2], the Max response is listed as 45.

As a reminder, the EC50 is the concentration giving half of the maximal effect.
